{"source": "patent US20170226507A1", "about": "“COORDINATE CONTROL OF PATHOGENIC SIGNALING BY THE MIR-130/301 FAMILY IN PULMONARY HYPERTENSION AND FIBROPROLIFERATIVE DISEASES” (The Brigham and Women's Hospital, Inc., priority 2014, published 2017)", "tested_on": "miR-130/301 family", "assay": "RT-qPCR of miR-130/301 family members after transfection of oligonucleotide inhibitors (specificity), PAECs", "assay_type": "cell-based, human", "conditions": "normoxia and hypoxia", "excerpt": "FIGS. 14A-14C show the comparison of the specificity of miR-130/301 oligonucleotide inhibitors. (FIG. 14A) Overview of the miRNA silencing approach using seed-targeting tiny locked nucleic acid (LNA) molecules. Tiny LNAs were designed as fully LNA-modified oligonucleotides complementary to the seed region of the miR-130/301 family. The high binding affinity of tiny LNA enables functional inhibition of co-expressed members of miRNA seed families, which leads to de-repression of target mRNAs. Sequences shown in FIG. 14A are miR-130a (SEQ ID NO: 4), miR-130b (SEQ ID NO: 5), miR-301a (SEQ ID NO: 6), miR-301b (SEQ ID NO: 7) and tiny-LNA-130 ([…] SEQ ID NO: 3). […] In the setting of exposure to hypoxia (0.2% O2; 24 h) or normoxia (21% O2; 24 h), expression levels of miR-130/301 family members in PAECs (FIG. 14B) and PASMCs (FIG. 14C) were quantified after transfection with anti-miR-130a versus control (anti-miR-NC) (left panels) or tiny-LNA-130 versus control (tiny-LNA-NC) (right panels). […]\nCells were homogenized in 2 ml of QiaZol reagent (Qiagen). […] Total RNA concentration was determined using a ND-1000 micro-spectrophotometer (NanoDrop Technologies).\nMature miRNA expression was evaluated using TaqMan MicroRNA Assays (Life Technologies/Applied Biosystems) and the Applied Biosystems 7900HT Fast Real Time PCR device (Life Technologies/Applied Biosystems). […]", "note": "Entries after “also recorded” stand apart in the source; their conditions may differ."}
{"substance": "tiny-LNA-130: fully LNA-modified tiny LNA oligonucleotide 5′-ATTGCACT-3′ (SEQ ID NO: 3) complementary to the seed region of the miR-130/301 family (all LNA, backbone and methylation of C not given here)", "values": [{"measurement": "expression of all miR-130/301 family members", "result": "down-regulated; also recorded: effective inhibitors of the entire miR-130/301 family"}]}
